Data reported in patent US11358952B2, “Substituted 4-aminoisoindoline-1,3-dione compounds, compositions thereof, and methods of treatment therewith” (Celgene Corporation, priority 2018, dated 2022).

Test system: SU-DHL-4 cell line
Experiment: SU-DHL-4 cell proliferation assay (Cell Titer-Glo viability)
Assay type: cell-based
Details: Homo sapiens; cell viability IC50 activity level, DLBCL cell line SU-DHL-4, 120 hours post-treatment; read-out: SU-DHL-4 Act
In short: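 SU-DHL-4 cells (500/well, RPMI-1640 + 10% FBS) exposed to 20-point compound dilutions (0.5 nM–10 μM, 0.1% DMSO) for 120 h at 37°C, 5% CO2. Viability measured by Cell Titer-Glo luminescence at t0 and at 120 h. IC50 is the concentration giving 50% of DMSO control, from a four-parameter logistic fit.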

Compound	IC50 [µM]
O=C1CCC(N2C(=O)c3cccc(NCc4ccc(CN5CC(c6ccc(F)cc6)C5)cc4)c3C2=O)C(=O)N1 (stereo not drawn) [Cpd 14, 2-(2,6-dioxopiperidin-3-yl)-4-(4-((3-(4-fluorophenyl)azetidin-1-yl)methyl)benzylamino)isoindoline-1,3-dione]	0.2 to 0.5
O=C1CCC(N2C(=O)c3cccc(NCc4ccc(CN5CC(N6CCCC6)C5)cc4)c3C2=O)C(=O)N1 (stereo not drawn) [Cpd 216, 2-(2,6-dioxopiperidin-3-yl)-4-(4-((3-(pyrrolidin-1-yl)azetidin-1-yl)methyl)benzylamino)isoindoline-1,3-dione]	< 0.2
NC(=O)c1cc(N2CCN(Cc3ccc(CNc4cccc5c4C(=O)N(C4CCC(=O)NC4=O)C5=O)cc3F)CC2)ccn1 (stereo not drawn) [Cpd 191, 4-(4-(4-((2-(2,6-dioxopiperidin-3-yl)-1,3-dioxoisoindolin-4-ylamino)methyl)-2-fluorobenzyl)piperazin-1-yl)picolinamide]	0.501 to 0.75
Cc1cc(CNc2cccc3c2C(=O)N(C2CCC(=O)NC2=O)C3=O)ccc1CN1CCN(c2ccnc(C(N)=O)c2)CC1 (stereo not drawn) [Cpd 190, 4-(4-(4-((2-(2,6-dioxopiperidin-3-yl)-1,3-dioxoisoindolin-4-ylamino)methyl)-2-methylbenzyl)piperazin-1-yl)picolinamide]	0.2 to 0.5
Cc1cc(CNc2cccc3c2C(=O)N(C2CCC(=O)NC2=O)C3=O)ccc1CN1CCC(C(F)(F)F)CC1 (stereo not drawn) [Cpd 45, 2-(2,6-dioxopiperidin-3-yl)-4-(3-methyl-4-((4-(trifluoromethyl)piperidin-1-yl)methyl)benzylamino)isoindoline-1,3-dione]	< 0.2
Cc1cc(CNc2cccc3c2C(=O)N(C2CCC(=O)NC2=O)C3=O)ccc1CN1CCOCC1 (stereo not drawn) [Cpd 155, 2-(2,6-dioxopiperidin-3-yl)-4-(3-methyl-4-(morpholinomethyl)benzylamino) isoindoline-1,3-dione]	0.751 to 1
CCOC1(C)CCN(Cc2ccc(CNc3cccc4c3C(=O)N(C3CCC(=O)NC3=O)C4=O)c(F)c2)CC1 (stereo not drawn) [Cpd 158, 2-(2,6-dioxopiperidin-3-yl)-4-(4-((4-ethoxy-4-methylpiperidin-1-yl)methyl)-2-fluorobenzylamino)isoindoline-1,3-dione]	< 0.2
CC1(C)CN(c2ccc(Cl)cc2)CCN1Cc1ccc(CNc2cccc3c2C(=O)N(C2CCC(=O)NC2=O)C3=O)cc1 (stereo not drawn) [Cpd 34, 4-(4-((4-(4-chlorophenyl)-2,2-dimethylpiperazin-1-yl)methyl)benzylamino)-2-(2,6-dioxopiperidin-3-yl)isoindoline-1,3-dione]	0.751 to 1
N#Cc1ccc(N2CCN(Cc3ccc(CNc4cccc5c4C(=O)N(C4CCC(=O)NC4=O)C5=O)cc3)CC2)c(Cl)c1 (stereo not drawn) [Cpd 9, 3-chloro-4-(4-(4-((2-(2,6-dioxopiperidin-3-yl)-1,3-dioxoisoindolin-4-ylamino)methyl)benzyl)piperazin-1-yl)benzonitrile]	< 0.2
C[C@@H]1CN(c2ccc(C#N)cc2Cl)CCN1Cc1ccc(CNc2cccc3c2C(=O)N(C2CCC(=O)NC2=O)C3=O)cc1 (stereo partly drawn) [Cpd 62, 3-chloro-4-((3R)-4-(4-((2-(2,6-dioxopiperidin-3-yl)-1,3-dioxoisoindolin-4-ylamino)methyl)benzyl)-3-methylpiperazin-1-yl)benzonitrile]	< 0.2
CC1(C)CN(C2CN(Cc3ccc(CNc4cccc5c4C(=O)N(C4CCC(=O)NC4=O)C5=O)cc3)C2)CCO1 (stereo not drawn) [Cpd 235, 4-(4-((3-(2,2-dimethylmorpholino)azetidin-1-yl)methyl)benzylamino)-2-(2,6-dioxopiperidin-3-yl)isoindoline-1,3-dione]	0.501 to 0.75
CC(C)(C)C1CCN(Cc2ccc(CNc3cccc4c3C(=O)N(C3CCC(=O)NC3=O)C4=O)cc2F)CC1 (stereo not drawn) [Cpd 92, 4-(4-((4-tert-butylpiperidin-1-yl)methyl)-3-fluorobenzylamino)-2-(2,6-dioxopiperidin-3-yl)isoindoline-1,3-dione]	< 0.2
Cc1cc(C#N)ccc1N1CCN(Cc2ccc(CNc3cccc4c3C(=O)N(C3CCC(=O)NC3=O)C4=O)cc2)[C@H](C)C1 (stereo partly drawn) [Cpd 67, 4-((3R)-4-(4-((2-(2,6-dioxopiperidin-3-yl)-1,3-dioxoisoindolin-4-ylamino)methyl)benzyl)-3-methylpiperazin-1-yl)-3-methylbenzonitrile]	< 0.2
CC1(C)CCN(Cc2ccc(CNc3cccc4c3C(=O)N(C3CCC(=O)NC3=O)C4=O)cc2)CC1 (stereo not drawn) [Cpd 36, 4-(4-((4,4-dimethylpiperidin-1-yl)methyl)benzylamino)-2-(2,6-dioxopiperidin-3-yl)isoindoline-1,3-dione]	0.2 to 0.5
CCC1CN(Cc2ccc(CNc3cccc4c3C(=O)N(C3CCC(=O)NC3=O)C4=O)cc2)C1 (stereo not drawn) [Cpd 112, 2-(2,6-dioxopiperidin-3-yl)-4-(4-((3-ethylazetidin-1-yl)methyl)benzylamino)isoindoline-1,3-dione]	0.2 to 0.5
O=C1CCC(N2C(=O)c3cccc(NCc4ccc(CN5CC(N6C7CCC6COC7)C5)cc4F)c3C2=O)C(=O)N1 (stereo not drawn) [Cpd 246, 4-(4-((3-(3-oxa-8-azabicyclo[3.2.1]octan-8-yl)azetidin-1-yl)methyl)-2-fluorobenzylamino)-2-(2,6-dioxopiperidin-3-yl)isoindoline-1,3-dione]	< 0.2
O=C1CCC(N2C(=O)c3cccc(NCc4ccc(CN5CCN(c6ccc(F)cc6F)CC5)cc4)c3C2=O)C(=O)N1 (stereo not drawn) [Cpd 1, 4-(4-((4-(2,4-difluorophenyl)piperazin-1-yl)methyl)benzylamino)-2-(2,6-dioxopiperidin-3-yl)isoindoline-1,3-dione]	0.501 to 0.75
O=C1CCC(N2C(=O)c3cccc(NCc4ccc(CN5CC(N6CC7CCC(C6)O7)C5)cc4)c3C2=O)C(=O)N1 (stereo not drawn) [Cpd 224, 4-(4-((3-(8-oxa-3-azabicyclo[3.2.1]octan-3-yl)azetidin-1-yl)methyl)benzylamino)-2-(2,6-dioxopiperidin-3-yl)isoindoline-1,3-dione]	< 0.2
CN(C)C(=O)c1ccc(N2CCN(Cc3ccc(CNc4cccc5c4C(=O)N(C4CCC(=O)NC4=O)C5=O)cc3)CC2)cn1 (stereo not drawn) [Cpd 55, 5-(4-(4-((2-(2,6-dioxopiperidin-3-yl)-1,3-dioxoisoindolin-4-ylamino)methyl)benzyl)piperazin-1-yl)-N,N-dimethylpicolinamide]	0.2 to 0.5
CC1(C)CN(C2CN(Cc3ccc(CNc4cccc5c4C(=O)N(C4CCC(=O)NC4=O)C5=O)c(F)c3)C2)CCO1 (stereo not drawn) [Cpd 245, 4-(4-((3-(2,2-dimethylmorpholino)azetidin-1-yl)methyl)-2-fluorobenzylamino)-2-(2,6-dioxopiperidin-3-yl)isoindoline-1,3-dione]	< 0.2
CC1(C)COCCN1C1CN(Cc2ccc(CNc3cccc4c3C(=O)N(C3CCC(=O)NC3=O)C4=O)c(F)c2)C1 (stereo not drawn) [Cpd 237, 4-(4-((3-(3,3-dimethylmorpholino)azetidin-1-yl)methyl)-2-fluorobenzylamino)-2-(2,6-dioxopiperidin-3-yl)isoindoline-1,3-dione]	< 0.2
Cc1cc(CNc2cccc3c2C(=O)N(C2CCC(=O)NC2=O)C3=O)ccc1CN1CC2(CCCO2)C1 (stereo not drawn) [Cpd 232, 4-(4-(5-oxa-2-azaspiro[3.4]octan-2-ylmethyl)-3-methylbenzylamino)-2-(2,6-dioxopiperidin-3-yl)isoindoline-1,3-dione]	< 0.2
O=C1CC[C@H](N2C(=O)c3cccc(NCc4ccc(CN5CC(N6CCOCC6)C5)cc4F)c3C2=O)C(=O)N1 [Cpd 208, (S)-2-(2,6-dioxopiperidin-3-yl)-4-(2-fluoro-4-((3-morpholinoazetidin-1-yl)methyl)benzylamino)isoindoline-1,3-dione]	< 0.2
CC1(C)CCC2(CCN(Cc3ccc(CNc4cccc5c4C(=O)N(C4CCC(=O)NC4=O)C5=O)cc3)CC2)O1 (stereo not drawn) [Cpd 129, 4-(4-((2,2-dimethyl-1-oxa-8-azaspiro[4.5]decan-8-yl)methyl)benzylamino)-2-(2,6-dioxopiperidin-3-yl)isoindoline-1,3-dione]	< 0.2
Cc1cc(CNc2cccc3c2C(=O)N(C2CCC(=O)NC2=O)C3=O)ccc1CN1CC(C(C)C)C1 (stereo not drawn) [Cpd 202, 2-(2,6-dioxopiperidin-3-yl)-4-(4-((3-isopropylazetidin-1-yl)methyl)-3-methylbenzylamino)isoindoline-1,3-dione]	< 0.2
Cc1cc(CNc2cccc3c2C(=O)N(C2CCC(=O)NC2=O)C3=O)ccc1CN1CCC(C(C)C)CC1 (stereo not drawn) [Cpd 40, 2-(2,6-dioxopiperidin-3-yl)-4-(4-((4-isopropylpiperidin-1-yl)methyl)-3-methylbenzylamino)isoindoline-1,3-dione]	< 0.2
N#Cc1cccc(C2CN(Cc3ccc(CNc4cccc5c4C(=O)N(C4CCC(=O)NC4=O)C5=O)cc3F)C2)c1 (stereo not drawn) [Cpd 120, 3-(1-(4-((2-(2,6-dioxopiperidin-3-yl)-1,3-dioxoisoindolin-4-ylamino)methyl)-2-fluorobenzyl)azetidin-3-yl)benzonitrile]	< 0.2
Cn1cc(N2CCN(Cc3ccc(CNc4cccc5c4C(=O)N(C4CCC(=O)NC4=O)C5=O)cc3)CC2)cn1 (stereo not drawn) [Cpd 195, 2-(2,6-dioxopiperidin-3-yl)-4-(4-((4-(1-methyl-1H-pyrazol-4-yl)piperazin-1-yl)methyl)benzylamino)isoindoline-1,3-dione]	0.2 to 0.5
O=C1CCC(N2C(=O)c3cccc(NCc4ccc(CN5CCC(c6cc(F)cc(F)c6)CC5)cc4)c3C2=O)C(=O)N1 (stereo not drawn) [Cpd 20, 4-(4-((4-(3,5-difluorophenyl)piperidin-1-yl)methyl)benzylamino)-2-(2,6-dioxopiperidin-3-yl)isoindoline-1,3-dione]	0.2 to 0.5
CN1CCC2(CCN(Cc3ccc(CNc4cccc5c4C(=O)N(C4CCC(=O)NC4=O)C5=O)cc3)CC2)C1=O (stereo not drawn) [Cpd 122, 2-(2,6-dioxopiperidin-3-yl)-4-(4-((2-methyl-1-oxo-2,8-diazaspiro[4.5]decan-8-yl)methyl)benzylamino)isoindoline-1,3-dione]	0.2 to 0.5
